From patent publication US11584765B2 (priority 2017, dated 2023)

Tested on: C57BL/6 mice
Assay: animal or person
Type: in vivo
Settings: Mus musculus, sc, 0.5 h, s.c. administration, 30 min, 55° C. water, read-out: ED50 (mg/kg) at 30 min on C57BL/6 mice in Warm-water Tail-flick Test

Row | SMILES | ED50 [mg/kg]
1 | CC(=O)Nc1ccc(CN2CC[C@@](CCc3ccccc3)([C@@H]3C=CCO3)C2)cc1 (single isomer, unassigned) [Compound 258] | < 10
2 | CC(=O)Nc1ccc(CN2CC[C@@](CCc3ccccc3)([C@H]3C=CCO3)C2)cc1 (single isomer, unassigned) [Compound 259] | < 10
3 | CC(=O)Nc1ccc(CN2CC[C@](CCc3ccccc3)([C@@H]3C=CCO3)C2)cc1 (single isomer, unassigned) [Compound 260] | > 10
4 | CC(=O)Nc1ccc(CN2CC[C@](CCc3ccccc3)([C@H]3C=CCO3)C2)cc1 (single isomer, unassigned) [Compound 261] | > 10
5 | C[C@H](O)[C@]1(CCc2cccs2)CCN(Cc2cccnc2)C1 (single isomer, unassigned) [Compound 422] | < 10
6 | C[C@H](O)[C@@]1(CCc2cccs2)CCN(Cc2cccnc2)C1 (single isomer, unassigned) [Compound 423] | < 10
7 | C[C@@H](O)[C@]1(CCc2cccs2)CCN(Cc2cccnc2)C1 (single isomer, unassigned) [Compound 424] | < 10
8 | CCOC(C)[C@@]1(CCc2cccs2)CCN(C(C)(C)c2ccc(C)nc2)C1 (single isomer, unassigned) [Compound 425, 5-(2-((S)-3-((S or R)-1-ethoxyethyl)-3-(2-(thiophen-2-yl)ethyl)pyrrolidin-1-yl)propan-2-yl)-2-methylpyridine] | < 10
9 | CCOCC1(CCc2cccs2)CCN(Cc2ccc(NC(C)=O)cc2)C1 (stereo in doubt) [Compound 325, (R)-N-(4-((3-(ethoxymethyl)-3-(2-(thiophen-2-yl)ethyl)pyrrolidin-1-yl)methyl)phenyl)acetamide] | < 10
10 | CC(=O)Nc1ccc(CN2CCC(CCc3ccccc3)(c3ncc[nH]3)CC2)cc1 [Compound 1] | > 10
11 | CC(=O)Nc1ccc(CN2CCC(CCc3ccccc3)(c3cccs3)CC2)cc1 [Compound 2] | > 10
12 | CC(=O)Nc1ccc(CN2CCC(CCc3ccccc3)(c3ccsc3)CC2)cc1 [Compound 3] | > 10
13 | CC(=O)Nc1ccc(CN2CCC(CCc3ccccc3)(c3ccccc3)CC2)cc1 [Compound 4] | > 10
14 | CC(=O)Nc1ccc(CN2CCC(CCc3ccccc3)(c3ccccn3)CC2)cc1 [Compound 5] | < 10
15 | CC(=O)Nc1ccc(CN2CCC(CCc3ccccc3)(c3cccnc3)CC2)cc1 [Compound 6] | > 10
16 | CC(=O)Nc1ccc(CN2CCC(CCc3ccccc3)(c3ccncc3)CC2)cc1 [Compound 7] | > 10
17 | CC(=O)Nc1ccc(CN2CCC(CCc3ccccc3)(c3nncs3)CC2)cc1 [Compound 8] | > 10
18 | CC(=O)Nc1ccc(CN2CCC(CCc3ccccc3)(c3nnco3)CC2)cc1 [Compound 9] | > 10
19 | CC(=O)Nc1ccc(CN2CCC(CCc3ccccc3)(c3ncon3)CC2)cc1 [Compound 10] | > 10
20 | CC(=O)Nc1ccc(CN2CCC(CCc3ccccc3)(c3noc(C)n3)CC2)cc1 [Compound 11] | > 10
21 | CC(=O)Nc1ccc(CN2CCC(CCc3ccccc3)(c3nnc(C)o3)CC2)cc1 [Compound 12, N-(4-((4-(5-methyl-1,3,4-oxadiazol-2-yl)-4-phenethylpiperidin-1-yl)methyl)phenyl)acetamide] | > 10
22 | CC(=O)Nc1ccc(CN2CCC(CCc3ccccc3)(c3nnc(C)s3)CC2)cc1 [Compound 13, N-(4-((4-(5-methyl-1,3,4-thiadiazol-2-yl)-4-phenethylpiperidin-1-yl)methyl)phenyl)acetamide] | > 10
23 | CC(=O)Nc1ccc(CN2CCC(Cc3ccccc3)(c3ccccn3)CC2)cc1 [Compound 14, N-(4-((4-benzyl-4-(pyridin-2-yl)piperidin-1-yl)methyl)phenyl)acetamide] | > 10
24 | CC(=O)Nc1ccc(CN2CCC(CCCc3ccccc3)(c3ccccn3)CC2)cc1 [Compound 15, N-(4-((4-(3-phenylpropyl)-4-(pyridin-2-yl)piperidin-1-yl)methyl)phenyl)acetamide] | > 10
